Laboratory results published in ChEMBL document CHEMBL2086272, “Anticlastogenic effect in human lymphocytes by the sodium salt of 3,4-secoisopimar-4(18),7,15-trien-3-oic acid” (J Nat Prod, 2012).
Calls of active or inactive are those of the source. The calls are words filed in the database; no cut-off is given here.

Experiments:
[1] = system: PBL; assay: Cytotoxicity in human PBL assessed as nuclear division index at 0.3 uM treated after treatment with ethyl methanesulfonate (reference value: 1.59 +/- 0.08 nuclear division index); format: cell-based
[2] = system: PBL; assay: Cytotoxicity in human PBL assessed as nuclear division index at 33 uM pretreated before colcemid (reference value: 1.63 +/- 0.11 nuclear division index); format: cell-based
[3] = system: PBL; assay: (§1) Antimutagenic activity in human PBL assessed as inhibition of ethyl methanesulfonate-induced frequency of micronucleus per 1000 binucleated lymphocyte cells at 1930 uM pretreated before ethyl methanesulfonate by cytokinesis blocking technique (reference value: 3.33 +/- 0.88 micronucleus frequency/1000 binucleated lymphocyte cells); format: functional
[4] = system: PBL; assay: as §1, with “0.3” for “1930”; format: functional
[5] = system: PBL; assay: as §1, with “colcemid-induced” for “ethyl methanesulfonate-induced”, “3.3” for “1930”, “colcemid” for “ethyl methanesulfonate”; format: functional
[6] = system: PBL; assay: as §1, with “colcemid-induced” for “ethyl methanesulfonate-induced”, “33” for “1930”, “colcemid” for “ethyl methanesulfonate”; format: functional
[7] = system: PBL; assay: (§2) Antimutagenic activity in human PBL assessed as inhibition of colcemid-induced frequency of micronucleus per 1000 binucleated lymphocyte cells at 330 uM co-treated with colcemid by cytokinesis blocking technique (reference value: 4.00 +/- 0.41 micronucleus frequency/1000 binucleated lymphocyte cells); format: functional
[8] = system: PBL; assay: Cytotoxicity in human PBL assessed as nuclear division index at 3.3 uM treated after treatment with ethyl methanesulfonate (reference value: 1.59 +/- 0.08 nuclear division index); format: cell-based
[9] = system: PBL; assay: as §2, with “0.054” for “330”; format: functional
[10] = system: PBL; assay: Cytotoxicity in human PBL assessed as nuclear division index at 1930 uM pretreated before ethyl methanesulfonate (reference value: 1.63 +/- 0.11 nuclear division index); format: cell-based
[11] = system: PBL; assay: Cytotoxicity in human PBL assessed as nuclear division index at 1930 uM co-treated with ethyl methanesulfonate (reference value: 1.65 +/- 0.06 nuclear division index); format: cell-based
[12] = system: PBL; assay: Cytotoxicity in human PBL assessed as nuclear division index at 1930 uM treated after treatment with ethyl methanesulfonate (reference value: 1.59 +/- 0.08 nuclear division index); format: cell-based
[13] = system: PBL; assay: Cytotoxicity in human PBL assessed as nuclear division index at 3.3 uM pretreated before ethyl methanesulfonate (reference value: 1.63 +/- 0.11 nuclear division index); format: cell-based
[14] = system: PBL; assay: as §1, with “colcemid-induced” for “ethyl methanesulfonate-induced”, “0.3” for “1930”, “colcemid” for “ethyl methanesulfonate”; format: functional
[15] = system: PBL; assay: Cytotoxicity in human PBL assessed as nuclear division index at 330 uM treated after treatment with ethyl methanesulfonate (reference value: 1.59 +/- 0.08 nuclear division index); format: cell-based
[16] = system: PBL; assay: Cytotoxicity in human PBL assessed as nuclear division index at 0.054 uM pretreated before colcemid (reference value: 1.63 +/- 0.11 nuclear division index); format: cell-based
[17] = system: PBL; assay: Cytotoxicity in human PBL assessed as nuclear division index at 0.3 uM treated after treatment with colcemid (reference value: 1.59 +/- 0.08 nuclear division index); format: cell-based
[18] = system: PBL; assay: as §1, with “33” for “1930”; format: functional
[19] = system: PBL; assay: as §1, with “330” for “1930”; format: functional
[20] = system: PBL; assay: Cytotoxicity in human PBL assessed as nuclear division index at 33 uM pretreated before ethyl methanesulfonate (reference value: 1.63 +/- 0.11 nuclear division index); format: cell-based
[21] = system: PBL; assay: Cytotoxicity in human PBL assessed as nuclear division index at 330 uM co-treated with ethyl methanesulfonate (reference value: 1.65 +/- 0.06 nuclear division index); format: cell-based
[22] = system: PBL; assay: as §2, with “0.3” for “330”; format: functional
[23] = system: PBL; assay: as §1, with “colcemid-induced” for “ethyl methanesulfonate-induced”, “0.054” for “1930”, “colcemid” for “ethyl methanesulfonate”; format: functional
[24] = system: PBL; assay: as §2, with “ethyl methanesulfonate-induced” for “colcemid-induced”, “1930” for “330”, “ethyl methanesulfonate” for “colcemid”; format: functional
[25] = system: PBL; assay: Cytotoxicity in human PBL assessed as nuclear division index at 33 uM treated after treatment with colcemid (reference value: 1.59 +/- 0.08 nuclear division index); format: cell-based
[26] = system: PBL; assay: as §2, with “ethyl methanesulfonate-induced” for “colcemid-induced”, “ethyl methanesulfonate” for “colcemid”; format: functional
[27] = system: PBL; assay: Cytotoxicity in human PBL assessed as nuclear division index at 330 uM co-treated with colcemid (reference value: 1.65 +/- 0.06 nuclear division index); format: cell-based
[28] = system: PBL; assay: Cytotoxicity in human PBL assessed as nuclear division index at 0.3 uM co-treated with ethyl methanesulfonate (reference value: 1.65 +/- 0.06 nuclear division index); format: cell-based
[29] = system: PBL; assay: as §1, with “colcemid-induced” for “ethyl methanesulfonate-induced”, “330” for “1930”, “colcemid” for “ethyl methanesulfonate”; format: functional, cell-based
[30] = system: PBL; assay: Cytotoxicity in human PBL assessed as nuclear division index at 0.3 to 330 uM; format: cell-based
[31] = system: PBL; assay: Cytotoxicity in human PBL assessed as nuclear division index at 3.3 uM co-treated with ethyl methanesulfonate (reference value: 1.65 +/- 0.06 nuclear division index); format: cell-based
[32] = system: PBL; assay: Cytotoxicity in human PBL assessed as nuclear division index at 3.3 uM pretreated before colcemid (reference value: 1.63 +/- 0.11 nuclear division index); format: cell-based
[33] = system: PBL; assay: as §1, with “3.3” for “1930”, “treated after treatment with” for “pretreated before”, “0.33” for “0.88”; format: functional
[34] = system: PBL; assay: as §2, with “0.054” for “330”, “treated after treatment” for “co-treated”, “3.33” for “4.00”, “0.33” for “0.41”; format: functional
[35] = system: PBL; assay: as §2, with “33” for “330”, “treated after treatment” for “co-treated”, “3.33” for “4.00”, “0.33” for “0.41”; format: functional
[36] = system: PBL; assay: Cytotoxicity in human PBL assessed as nuclear division index at 0.054 uM treated after treatment with colcemid (reference value: 1.59 +/- 0.08 nuclear division index); format: cell-based
[37] = system: PBL; assay: as §2, with “3.3” for “330”; format: functional
[38] = system: PBL; assay: Cytotoxicity in human PBL assessed as nuclear division index at 0.054 uM co-treated with colcemid (reference value: 1.65 +/- 0.06 nuclear division index); format: cell-based
[39] = system: PBL; assay: Cytotoxicity in human PBL assessed as nuclear division index at 33 uM co-treated with colcemid (reference value: 1.65 +/- 0.06 nuclear division index); format: cell-based
[40] = system: PBL; assay: as §2, with “ethyl methanesulfonate-induced” for “colcemid-induced”, “0.3” for “330”, “ethyl methanesulfonate” for “colcemid”; format: functional
[41] = system: PBL; assay: Cytotoxicity in human PBL assessed as nuclear division index at 330 uM pretreated before colcemid (reference value: 1.63 +/- 0.11 nuclear division index); format: cell-based
[42] = system: PBL; assay: Cytotoxicity in human PBL assessed as nuclear division index at 3.3 uM co-treated with colcemid (reference value: 1.65 +/- 0.06 nuclear division index); format: cell-based
[43] = system: PBL; assay: (§3) Antimutagenic activity in human PBL assessed as inhibition of colcemid-induced frequency of micronucleus per 1000 binucleated lymphocyte cells at 33 uM co-treated with colcemid by cytokinesis blocking technique (reference value: 4.00 +/- 0.41 micronucleus frequency/1000 binucleated lymphocyte cells); format: functional
[44] = system: PBL; assay: as §1, with “0.3” for “1930”, “treated after treatment with” for “pretreated before”, “0.33” for “0.88”; format: functional
[45] = system: PBL; assay: as §1, with “3.3” for “1930”; format: functional
[46] = system: PBL; assay: Cytotoxicity in human PBL assessed as nuclear division index at 330 uM treated after treatment with colcemid (reference value: 1.59 +/- 0.08 nuclear division index); format: cell-based
[47] = system: PBL; assay: as §1, with “treated after treatment with” for “pretreated before”, “0.33” for “0.88”; format: functional
[48] = system: PBL; assay: Cytotoxicity in human PBL assessed as nuclear division index at 0.3 uM pretreated before colcemid (reference value: 1.63 +/- 0.11 nuclear division index); format: cell-based
[49] = system: PBL; assay: Cytotoxicity in human PBL assessed as nuclear division index at 0.3 uM co-treated with colcemid (reference value: 1.65 +/- 0.06 nuclear division index); format: cell-based
[50] = system: PBL; assay: as §2, with “treated after treatment” for “co-treated”, “3.33” for “4.00”, “0.33” for “0.41”; format: functional
[51] = system: PBL; assay: as §1, with “330” for “1930”, “treated after treatment with” for “pretreated before”, “0.33” for “0.88”; format: functional
[52] = system: PBL; assay: Cytotoxicity in human PBL assessed as nuclear division index at 0.3 uM pretreated before ethyl methanesulfonate (reference value: 1.63 +/- 0.11 nuclear division index); format: cell-based
[53] = system: PBL; assay: Cytotoxicity in human PBL assessed as nuclear division index at 33 uM co-treated with ethyl methanesulfonate (reference value: 1.65 +/- 0.06 nuclear division index); format: cell-based
[54] = system: PBL; assay: as §3, with “ethyl methanesulfonate-induced” for “colcemid-induced”, “ethyl methanesulfonate” for “colcemid”; format: functional
[55] = system: PBL; assay: as §2, with “0.3” for “330”, “treated after treatment” for “co-treated”, “3.33” for “4.00”, “0.33” for “0.41”; format: functional
[56] = system: PBL; assay: as §2, with “3.3” for “330”, “treated after treatment” for “co-treated”, “3.33” for “4.00”, “0.33” for “0.41”; format: functional
[57] = system: PBL; assay: Genotoxicity in human PBL assessed as micronucleus frequency at 0.3 to 330 uM; format: toxicity, cell-based
[58] = system: PBL; assay: Cytotoxicity in human PBL assessed as nuclear division index at 3.3 uM treated after treatment with colcemid (reference value: 1.59 +/- 0.08 nuclear division index); format: cell-based
[59] = system: PBL; assay: as §2, with “ethyl methanesulfonate-induced” for “colcemid-induced”, “3.3” for “330”, “ethyl methanesulfonate” for “colcemid”; format: functional
[60] = system: PBL; assay: Cytotoxicity in human PBL assessed as nuclear division index at 330 uM pretreated before ethyl methanesulfonate (reference value: 1.63 +/- 0.11 nuclear division index); format: cell-based
[61] = system: PBL; assay: as §1, with “33” for “1930”, “treated after treatment with” for “pretreated before”, “0.33” for “0.88”; format: functional
[62] = system: PBL; assay: Cytotoxicity in human PBL assessed as nuclear division index at 33 uM treated after treatment with ethyl methanesulfonate (reference value: 1.59 +/- 0.08 nuclear division index); format: cell-based

Structure (SMILES): C=C[C@@]1(C)CC[C@H]2C(=CC[C@@H](C(=C)C)[C@]2(C)CCC(=O)[O-])C1.[Na+]
- Activity [1]: 1.43
- Activity [2]: 1.31
- Activity [3]: 14
- Activity [4]: 5.5
- Activity [5]: 18.42
- Activity [6]: 18
- Activity [7]: 20.25
- Activity [8]: 1.36
- Activity [9]: 24.78
- Activity [10]: 1.53
- Activity [11]: 1.55
- Activity [12]: 1.41
- Activity [13]: 1.49
- Activity [14]: 19.25
- Activity [15]: 1.31
- Activity [16]: 1.52
- Activity [17]: 1.59
- Activity [18]: 3.75
- Activity [19]: 4
- Activity [20]: 1.42
- Activity [21]: 1.63
- Activity [22]: 21.5
- Activity [23]: 22.75
- Activity [24]: 15.8
- Activity [25]: 1.56
- Activity [26]: 4.5
- Activity [27]: 1.41
- Activity [28]: 1.38
- Activity [29]: inactive
- Activity [30]: Non-toxic
- Activity [31]: 1.58
- Activity [32]: 1.28
- Activity [33]: 19.75
- Activity [34]: 12.25
- Activity [35]: 11.75
- Activity [36]: 1.65
- Activity [37]: 21.25
- Activity [38]: 1.39
- Activity [39]: 1.51
- Activity [40]: 4
- Activity [41]: 1.03
- Activity [42]: 1.42
- Activity [43]: 21
- Activity [44]: 19.25
- Activity [45]: 5.75
- Activity [46]: 1.56
- Activity [47]: 20.14
- Activity [48]: 1.44
- Activity [49]: 1.37
- Activity [50]: 12.5
- Activity [51]: 20
- Activity [52]: 1.46
- Activity [53]: 1.53
- Activity [54]: 5.5
- Activity [55]: 11.25
- Activity [56]: 12.25
- Activity [57]: Non-toxic
- Activity [58]: 1.58
- Activity [59]: 6.75
- Activity [60]: 1.28
- Activity [61]: 19.5
- Activity [62]: 1.36
